Reference: patent US7879865B2, “Treatment of cancer of the brain using histone deacetylase inhibitors” (Sloan-Kettering Institute for Cancer Research, priority 2001, dated 2011)

Assays:
[1] = system: histone deacetylase (HDAC); test: Acetylated histone levels in mouse tissues after IP injection (Western blot of isolated histones); assay type: in vivo; conditions: mice, three injections at 1 hour intervals, SAHA 100 mg/kg, pyroxamide 200 mg/kg
Experimental: FIG. […]
Each mouse was administered three injections at the indicated dose at 1 hour intervals. After the final IP injection tissues (brain, spleen or liver) were isolated at the times indicated. Histones were isolated from tissues essentially as described by Yoshida et al., (1990) J. Biol. Chem. 265:17174-17179. Equal amounts of histones (1 μg) were electrophoresed on 15% SDS-polyacrylamide gels and transferred to Hybond-P filters (Amersham). Filters were blocked with 3% milk and probed with a rabbit purified polyclonal anti-acetylated histone H4 antibody (αAc-H4) and anti-acetylated histone H3 antibody (αAc-H3) (Upstate Biotechnology, Inc.). Levels of acetylated histone were visualized using a horseradish peroxidase-conjugated goat anti-rabbit antibody (1:5000) and the SuperSignal chemiluminescent substrate (Pierce). As a loading control for the histone proteins, parallel gels were run and stained with Coomassie Blue (CB).

[2] = system: transformed cells in culture; conditions: cited from earlier work
tumor growth = conditions: cited from earlier work
[3] = system: histone deacetylase enzyme; conditions: cited from earlier work

| crossing of the blood brain barrier [1] | SMILES | inhibition of HDAC activity / accumulation of acetylated histones in the brain ([1]; brain histones, anti-AcH3/AcH4 Western blot) | cell cycle arrest, differentiation and/or apoptosis [2] | toxicity to the animal (tumor growth; animals in tumor growth studies) | accumulation of acetylated histones in the tumor (tumor growth; tumor) | binding to histone deacetylase enzyme [3] |
| --- | --- | --- | --- | --- | --- | --- |
| can cross the blood brain barrier | O=C(CCCCCCC(=O)Nc1cccnc1)NO [pyroxamide] | significantly inhibit HDAC activity causing the accumulation of acetylated histones in the brain |  |  |  |  |
| can cross the blood brain barrier | O=C(CCCCCCC(=O)Nc1ccccc1)NO [SAHA, suberoylanilide hydroxamic acid] |  | induces cell cycle arrest, differentiation and/or apoptosis of transformed cells in culture | no toxicity to the animal | associated with an accumulation of acetylated histones in the tumor | bind directly in the catalytic pocket of the histone deacetylase enzyme |
